# Patent US20250064945A1 (Arvinas Operations, Inc., priority 2021, published 2025)
# Structures can show the parent of a compound that is named as a salt.
# Molecular target: T1, BRM (Homo sapiens, UniProt P51531)
# T1 construct: In-Cell Western Screen of BRM Degradation in SW1573 Cells; endogenous in cells; host or cells: SW1573 cells
# Experiment: Western blot / In-Cell Western screen of BRM degradation in SW1573 cells
# Assay type: cell-based
# Details: overnight (18-20 hours) treatment; for Dmax: read-out: Dmax (%) (% degraded)
# Description: Western Blot Screen of BRM Degradation in SW1573 Cells
# (§1) To assess BRM degradation (Dmax and DC50) cells were seeded at 8000/well in 96-well black/clear-bottom plates in 180 μL DMEM growth media (containing 1% pen-strep, 1% HEPES and 10% FBS) per well. Plates were incubated overnight to allow adhesion. The next morning cells were treated by adding 20 μL of 10× target compound concentration (1% DMSO) to appropriate wells and returned to incubator for overnight (18-20 hours). The final DMSO concentration was 0.1%.
# For lysing, adherent cells were washed once with 100 μL of DPBS. Cells were lysed in 40 μL of 1× RIPA+HALT protease inhibitor on ice for 10 minutes and frozen until use at −80° C. Thawed lysates were cleaned by filtration in 1.2 µm filter plates, or alternatively, were spun clean at 2300 g at 4° C. for 30 minutes.
# For blotting, for each Western sample 30 μL of lysate was added to 10 μL of 4×LDS sample buffer, then denatured at 95° C. for 5 minutes in the thermal cycler and placed on ice. Samples were loaded on 4-15% Tris/Glycine gels and run for 25 minutes at 250 constant volts in 1×Tris/Glycine buffer with 4 μL of ladder and 12 μL of each sample loaded for each blot. Protein was transferred from gels to NC with BioRad Turbo dry-transfer unit with the Turbo/midi default program. All blots were rinsed with ddH2O and blocked for 1 hour at room temperature in 5% BSA in TBST (0.1%) on rocker. Blots were exposed to primary antibody in 5% BSA in TBST (0.1%) overnight at 4° C. on rocker (1:1000 for BRM (Cell Signaling Tech. cat #11966) and 1:2000 for alpha-tubulin (Cell Signaling Tech. cat #3873), a control protein. Blot was washed with TBST (0.1%) three times for 5 minutes on rocker at room temperature. Secondary antibody was added, and blots were incubated on a room temperature rocker for 1 hour with 1:18,000 anti-rabbit-HRP and/or anti-mouse-HRP in 5% BSA in TBST (0.1%). Blots were washed three times in TBST (0.1%) for 5 minutes at room temperature on the rocker. Signal was developed with Femto Maximum Sensitivity substrate for 4 minutes and blots read on ChemiDoc™.
# In-Cell Western Screen of BRM Degradation in SW1573 Cells
# as §1, with “DC50),” for “DC50)”, “10×” for “10× target”, “compound” for “compound concentration”
# For processing, the plates were removed from incubator, the media was removed, and immediately 200 μL of cold (4° C.) DPBS was added to all wells. DPBS was then removed, and 50 μL of 4% paraformaldehyde (PFA) in DPBS (4° C.) was added to all wells, and the plates were incubated at room temperature for 20 minutes. PFA was then removed, and 200 μL of TBS-T containing 0.5% Triton X-100 was added to all wells, and the plates were incubated at room temperature for 30 minutes. TBS-T containing 0.5% Triton X-100 was then removed, and 50 μL of Li-Cor blocking solution was added, and the plates were incubated at room temperature for a minimum of one hour. The blocking solution was removed, and 50 μL of Li-Cor blocking solution containing primary antibody cocktail was added (1:1000 for BRM (Cell Signaling Tech. cat #11966) and 1:2000 for alpha-tubulin (Sigma cat #T6074), a control protein. Plates were then placed in cold room until the next day.
# The next day plates were washed three times with TBS-T, 200 μL per well. Fifty […] of secondary antibody cocktail in LI-COR blocking solution (anti-rabbit_800 nm and anti-mouse_680 nm) was added to all wells (diluted 1:5000). The plates were incubated at room temperature for at least one hour while protected from light. The plates were washed twice with TBS-T, 200 μL per well. […]
# T1 sequence (P51531 whole entry): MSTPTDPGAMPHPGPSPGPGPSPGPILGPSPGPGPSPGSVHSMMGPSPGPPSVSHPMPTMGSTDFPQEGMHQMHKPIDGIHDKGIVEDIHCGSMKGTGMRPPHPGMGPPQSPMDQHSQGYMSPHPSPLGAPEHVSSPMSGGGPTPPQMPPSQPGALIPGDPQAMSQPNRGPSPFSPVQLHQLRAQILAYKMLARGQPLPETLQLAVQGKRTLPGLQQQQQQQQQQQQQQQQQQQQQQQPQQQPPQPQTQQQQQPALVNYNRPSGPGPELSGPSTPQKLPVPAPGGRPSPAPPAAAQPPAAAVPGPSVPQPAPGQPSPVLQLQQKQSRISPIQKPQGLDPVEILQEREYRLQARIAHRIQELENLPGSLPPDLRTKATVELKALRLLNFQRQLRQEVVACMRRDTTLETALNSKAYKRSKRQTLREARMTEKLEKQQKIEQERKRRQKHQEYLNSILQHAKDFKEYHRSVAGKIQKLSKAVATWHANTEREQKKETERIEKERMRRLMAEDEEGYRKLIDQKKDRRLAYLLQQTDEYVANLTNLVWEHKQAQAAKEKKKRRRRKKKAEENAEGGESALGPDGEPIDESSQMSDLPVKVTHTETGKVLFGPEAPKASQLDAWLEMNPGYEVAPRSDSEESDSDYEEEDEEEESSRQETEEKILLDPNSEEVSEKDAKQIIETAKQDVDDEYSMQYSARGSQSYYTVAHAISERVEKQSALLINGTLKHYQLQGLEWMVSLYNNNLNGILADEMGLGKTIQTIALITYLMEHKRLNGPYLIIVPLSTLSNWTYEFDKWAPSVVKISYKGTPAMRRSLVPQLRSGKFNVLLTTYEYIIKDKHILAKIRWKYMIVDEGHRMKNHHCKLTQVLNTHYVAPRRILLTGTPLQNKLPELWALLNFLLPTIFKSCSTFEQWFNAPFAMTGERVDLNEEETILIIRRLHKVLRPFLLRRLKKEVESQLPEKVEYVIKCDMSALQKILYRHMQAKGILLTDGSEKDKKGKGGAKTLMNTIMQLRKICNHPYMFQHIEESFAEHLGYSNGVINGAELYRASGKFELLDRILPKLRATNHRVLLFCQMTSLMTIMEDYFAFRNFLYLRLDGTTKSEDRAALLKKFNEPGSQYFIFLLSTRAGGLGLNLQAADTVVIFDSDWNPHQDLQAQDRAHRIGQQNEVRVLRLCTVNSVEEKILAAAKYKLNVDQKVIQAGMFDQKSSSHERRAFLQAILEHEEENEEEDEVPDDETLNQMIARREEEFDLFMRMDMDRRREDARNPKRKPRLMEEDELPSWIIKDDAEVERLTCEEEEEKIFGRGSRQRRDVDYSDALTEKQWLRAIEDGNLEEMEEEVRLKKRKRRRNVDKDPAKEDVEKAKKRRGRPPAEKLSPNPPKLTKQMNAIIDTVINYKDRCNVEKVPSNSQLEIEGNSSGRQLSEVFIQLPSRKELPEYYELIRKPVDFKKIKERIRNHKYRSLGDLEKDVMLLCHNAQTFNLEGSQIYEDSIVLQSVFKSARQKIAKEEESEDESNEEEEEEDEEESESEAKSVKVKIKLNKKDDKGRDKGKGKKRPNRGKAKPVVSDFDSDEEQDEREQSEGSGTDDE
compound,measurement,value
"Cc1ncsc1-c1ccc([C@H](C)NC(=O)[C@@H]2C[C@@H](O)CN2C(=O)[C@@H](c2cc(N3CCC(CN4CCC(O[C@H]5C[C@H](N6CCC(CN7CC8(C7)CN(c7cc(-c9ccccc9O)nnc7N)CCN8C)CC6)C5)CC4)CC3)no2)C(C)C)cc1 [Compound 27, (2S,4R)-4-hydroxy-N-[(1S)-1-[4-(4-methyl-1,3-thiazol-5-yl)phenyl]ethyl]-1-[(2R)-3-methyl-2-{3-[4-({4-[(1r,3r)-3-[4-({8-[3-amino-6-(2-hydroxyphenyl)pyridazin-4-yl]-5-methyl-2,5,8-triazaspiro[3.5]nonan-2-yl}methyl)piperidin-1-yl]cyclobutoxy]piperidin-1-yl}methyl)piperidin-1-yl]-1,2-oxazol-5-yl}butanoyl]pyrrolidine-2-carboxamide]",DC50,2.5 to 10 nM
same,Dmax,> 75%
"Cc1ncsc1-c1ccc([C@H](C)NC(=O)[C@@H]2C[C@@H](O)CN2C(=O)[C@@H](c2cc(N3CCC(CN4CCC(O[C@H]5C[C@H](n6cnc(CN7C8CCC7CN(c7cc(-c9ccccc9O)nnc7N)C8)c6)C5)CC4)CC3)no2)C(C)C)cc1 (relative stereo) [Compound 10, (2S,4R)-4-hydroxy-N-[(1S)-1-[4-(4-methyl-1,3-thiazol-5-yl)phenyl]ethyl]-1-[(2R*)-3-methyl-2-{3-[4-({4-[(1r,3r)-3-[4-({3-[3-amino-6-(2-hydroxyphenyl)pyridazin-4-yl]-3,8-diazabicyclo[3.2.1]octan-8-yl}methyl)-1H-imidazol-1-yl]cyclobutoxy]piperidin-1-yl}methyl)piperidin-1-yl]-1,2-oxazol-5-yl}butanoyl]pyrrolidine-2-carboxamide]",DC50,< 2.5 nM
same,Dmax,> 75%
"Cc1ncsc1-c1ccc([C@H](C)NC(=O)[C@@H]2C[C@@H](O)CN2C(=O)[C@@H](c2cc(N3CCC(CN4CCC(O[C@H]5C[C@H](N6CCN(C[C@@H]7[C@H]8CN(c9cc(-c%10ccccc%10O)nnc9N)C[C@@H]78)CC6)C5)CC4)CC3)no2)C(C)C)cc1 [Compound 9, (2S,4R)-4-hydroxy-N-[(1S)-1-[4-(4-methyl-1,3-thiazol-5-yl)phenyl]ethyl]-1-[(2R)-3-methyl-2-{3-[4-({4-[(1r,3r)-3-(4-{[(1R,5S,6S)-3-[3-amino-6-(2-hydroxyphenyl)pyridazin-4-yl]-3-azabicyclo[3.1.0]hexan-6-yl]methyl}piperazin-1-yl)cyclobutoxy]piperidin-1-yl}methyl)piperidin-1-yl]-1,2-oxazol-5-yl}butanoyl]pyrrolidine-2-carboxamide]",DC50,< 2.5 nM
same,Dmax,> 75%
"Cc1ncsc1-c1ccc([C@H](C)NC(=O)[C@@H]2C[C@@H](O)CN2C(=O)[C@@H](c2cc(N3CCC(CN4CCC(O[C@H]5C[C@H](Oc6cc(N7C[C@@H]8CN(c9cc(-c%10ccccc%10O)nnc9N)C[C@@H]8C7)ccn6)C5)CC4)CC3)no2)C(C)C)cc1 [Compound 7, (2S,4R)-4-hydroxy-N-[(1S)-1-[4-(4-methyl-1,3-thiazol-5-yl)phenyl]ethyl]-1-[(2R)-3-methyl-2-{3-[4-({4-[(1r,3r)-3-({4-[(3aR,6aS)-5-[3-amino-6-(2-hydroxyphenyl)pyridazin-4-yl]-octahydropyrrolo[3,4-c]pyrrol-2-yl]pyridin-2-yl}oxy)cyclobutoxy]piperidin-1-yl}methyl)piperidin-1-yl]-1,2-oxazol-5-yl}butanoyl]pyrrolidine-2-carboxamide]",DC50,< 2.5 nM
same,Dmax,> 75%
"Cc1ncsc1-c1ccc([C@H](C)NC(=O)[C@@H]2C[C@@H](O)CN2C(=O)[C@@H](c2cc(N3CCC(CN4CCC(OCCn5cnc(-c6cn7cc(-c8ccccc8O)nc7nc6N)c5)CC4)CC3)no2)C(C)C)cc1 [Compound 38, (2S,4R)-1-[(2R)-2-[3-(4-{[4-(2-{4-[7-amino-2-(2-hydroxyphenyl)imidazo[1,2-a]pyrimidin-6-yl]-1H-imidazol-1-yl}ethoxy)piperidin-1-yl]methyl}piperidin-1-yl)-1,2-oxazol-5-yl]-3-methylbutanoyl]-4-hydroxy-N-[(1S)-1-[4-(4-methyl-1,3-thiazol-5-yl)phenyl]ethyl]pyrrolidine-2-carboxamide]",DC50,2.5 to 10 nM
same,Dmax,> 75%
"Cc1ncsc1-c1ccc([C@H](C)NC(=O)[C@@H]2C[C@@H](O)CN2C(=O)[C@@H](c2cc(N3CCC(CN4CCC(O[C@H]5C[C@@H](N6CCC(CC#Cc7cn8cc(-c9ccccc9O)nc8nc7N)CC6)C5)CC4)CC3)no2)C(C)C)cc1 [Compound 36, formate]",DC50,< 2.5 nM
same,Dmax,> 75%
"CC(C)[C@@H](C(=O)N1C[C@H](O)C[C@H]1C(=O)N[C@@H](C)c1ccc(C#N)cc1)c1cc(OCCN2CCN(CCOc3cc(N4CCN(c5cc(-c6ccccc6O)nnc5N)CC45COC5)ccn3)CC2)no1 [Compound 19, (2S,4R)-1-[(2R)-2-{3-[2-(4-{2-[(4-{8-[3-amino-6-(2-hydroxyphenyl)pyridazin-4-yl]-2-oxa-5,8-diazaspiro[3.5]nonan-5-yl}pyridin-2-yl)oxy]ethyl}piperazin-1-yl)ethoxy]-1,2-oxazol-5-yl}-3-methylbutanoyl]-N-[(1S)-1-(4-cyanophenyl)ethyl]-4-hydroxypyrrolidine-2-carboxamide]",DC50,2.5 to 10 nM
same,Dmax,> 75%
"CC(C)[C@@H](C(=O)N1C[C@H](O)C[C@H]1C(=O)N[C@@H](C)c1ccc(-c2c(F)cnn2C)cc1)c1cc(N2CCC(CN3CCC(O[C@H]4C[C@H](C#Cc5cn6cc(-c7ccccc7O)nc6nc5N)C4)CC3)CC2)no1 [Compound 39, (2S,4R)-N-[(1S)-1-[4-(4-fluoro-1-methyl-1H-pyrazol-5-yl)phenyl]ethyl]-4-hydroxy-1-[(2R)-3-methyl-2-{3-[4-({4-[(1r,3r)-3-{2-[7-amino-2-(2-hydroxyphenyl)imidazo[1,2-a]pyrimidin-6-yl]ethynyl}cyclobutoxy]piperidin-1-yl}methyl)piperidin-1-yl]-1,2-oxazol-5-yl}butanoyl]pyrrolidine-2-carboxamide]",DC50,< 2.5 nM
same,Dmax,> 75%
"Cc1ncsc1-c1ccc([C@H](C)NC(=O)[C@@H]2C[C@@H](O)CN2C(=O)[C@@H](c2cc(OCCCC#Cc3cn4cc(-c5ccccc5O)nc4nc3N)no2)C(C)C)cc1 [Compound 31, (2S,4R)-1-[(2R)-2-[3-[5-[7-amino-2-(2-hydroxyphenyl)imidazo[1,2-a]pyrimidin-6-yl]pent-4-ynoxy]isoxazole-5-yl]-3-methyl-butanoyl]-4-hydroxy-N-[(1S)-1-[4-(4-methylthiazol-5-yl)phenyl]ethyl]pyrrolidine-2-carboxamide]",DC50,≥ 30 nM
"Cc1ncsc1-c1ccc([C@H](C)NC(=O)[C@@H]2C[C@@H](O)CN2C(=O)[C@@H](c2cc(N3CCC(CN4CCC(O[C@H]5C[C@H](Oc6cc(CC(F)c7cc(-c8ccccc8O)nnc7N)ccn6)C5)CC4)CC3)no2)C(C)C)cc1 (stereo partly drawn) [Compound 2, (2S,4R)-4-hydroxy-N-[(1S)-1-[4-(4-methyl-1,3-thiazol-5-yl)phenyl]ethyl]-1-[(2R)-3-methyl-2-{3-[4-({4-[(1r,3r)-3-[(4-{2-[3-amino-6-(2-hydroxyphenyl)pyridazin-4-yl]-2-fluoroethyl}pyridin-2-yl)oxy]cyclobutoxy]piperidin-1-yl}methyl)piperidin-1-yl]-1,2-oxazol-5-yl}butanoyl]pyrrolidine-2-carboxamide]",DC50,2.5 to 10 nM
same,Dmax,> 75%
